The text below walks through data of US10208030B2, “GPR119 agonist compounds” (Mankind Pharma Ltd., priority 2016, dated 2019).

Structures are written as SMILES.

The first assay concerns the target T1, hGPR119 (Homo sapiens, UniProt Q8TDV5).
T1 construct: expressed in transfected cells; host or cells: CHO cells (CHO-hGPR119)
T1 sequence (Q8TDV5 1-335): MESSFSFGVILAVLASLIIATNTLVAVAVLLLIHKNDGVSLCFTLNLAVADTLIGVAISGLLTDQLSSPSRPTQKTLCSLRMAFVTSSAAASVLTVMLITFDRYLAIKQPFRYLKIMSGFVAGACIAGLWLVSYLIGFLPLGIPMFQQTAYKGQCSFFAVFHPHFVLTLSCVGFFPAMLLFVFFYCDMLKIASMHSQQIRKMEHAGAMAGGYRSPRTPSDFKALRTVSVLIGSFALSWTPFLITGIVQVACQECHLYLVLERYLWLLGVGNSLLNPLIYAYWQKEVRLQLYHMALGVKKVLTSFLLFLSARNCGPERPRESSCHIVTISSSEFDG
The assay is described as follows: In vitro cyclic AMP assay (Cisbio HTRF) in CHO-hGPR119 cells. It is filed as cell-based. As to conditions: 1 h, cAMP, 1 μM, 60 min, read-out: Induction (% induction at 1 μM). On the procedure: cAMP measurements were done using Cisbio dynamic 2 HTRF kit according to the manufacturer's protocol. Briefly, CHO-hGPR119 cells were plated at a cell density of 5000 cells/well/5 μl into a white small volume 384 well plate. The final concentrations of IBMX and DMSO used were 1 mM and 0.5% respectively. Cells were treated with various concentrations of the test compound for 60 min at room temperature. Cells were lysed by buffer containing Anti-cAMP antibody and d2-cAMP reagents and incubated for 1 hour at room temperature. HTRF was measured at 337 nm excitation and emission wavelengths of 665 nm and 620 nm on a microplate reader (Flurostar, BMG Labtech). Graphpad prism software was utilized for EC50 determinations.
In the case of `CC(C)c1noc(N2CCC(C(C)Oc3nn4cc(-c5ccncc5F)nc4s3)CC2)n1` (stereo in doubt) [Compound 1064, (S)-5-(4-(1-((6-(3-fluoropyridin-4-yl)imidazo[2,1-b][1,3,4]thiadiazol-2-yl)oxy)ethyl)piperidin-1-yl)-3-isopropyl-1,2,4-oxadiazole], the activation at 1 µM was found to be 75%.

On to `CCc1cnc(N2CCC(C(C)Oc3nn4cc(-c5ccncc5)nc4s3)CC2)nc1` (stereo in doubt) [Compound 1080, 2-((S)-1-(1-(5-ethylpyrimidin-2-yl)piperidin-4-yl)ethoxy)-6-(pyridin-4-yl)imidazo[2,1-b][1,3,4]thiadiazole], for which the activation at 1 µM was found to be 74%.

For `CC(C)c1noc(N2CCC(C(C)Oc3nn4cc(-c5ccc(C(F)(F)F)nc5)nc4s3)CC2)n1` (stereo in doubt) [Compound 1084, 2-((S)-1-(1-(3-isopropyl-1,2,4-oxadiazol-5-yl)piperidin-4-yl)ethoxy)-6-(6-(trifluoromethyl)pyridin-3-yl)imidazo[2,1-b][1,3,4]thiadiazole], the activation at 1 µM came out at 72%.

Consider `CCc1cnc(N2CCC(C(C)Oc3nn4cc(-c5ccc(S(C)(=O)=O)nc5F)nc4s3)CC2)nc1` (stereo in doubt) [Compound 1102, 2-((S)-1-(1-(5-ethylpyrimidin-2-yl)piperidin-4-yl)ethoxy)-6-(2-fluoro-6-(methylsulfonyl)pyridin-3-yl)imidazo[2,1-b][1,3,4]thiadiazole], for which the activation at 1 µM was determined as 84%.

Consider `CC(C)c1noc(C2CCN(c3nsnc3Oc3ccc(-n4cnnn4)cc3)CC2)n1` [Compound 1003, 5-(1-(4-(4-(1H-tetrazol-1-yl)phenoxy)-1,2,5-thiadiazol-3-yl)piperidin-4-yl)-3-isopropyl-1,2,4-oxadiazole], for which the activation at 1 µM is 3%.

Turning to `CCc1cnc(N2CCC(c3nsnc3-c3ccc(S(C)(=O)=O)cc3)CC2)nc1` [Compound 1004, 3-(1-(5-ethylpyrimidin-2-yl)piperidin-4-yl)-4-(4-(methylsulfonyl)phenyl)-1,2,5-thiadiazole], the activation at 1 µM came out at 6%.

On to `CCc1cnc(N2CC=C(c3nsnc3Oc3ccc(-n4cnnn4)cc3)CC2)nc1` [Compound 1005, 3-(4-(1H-tetrazol-1-yl)phenoxy)-4-(1-(5-ethylpyrimidin-2-yl)-1,2,3,6-tetrahydropyridin-4-yl)-1,2,5-thiadiazole], for which the activation at 1 µM stood at 2%.

Consider `CC(C)c1noc(C2CCN(c3nsnc3COc3ccc(S(C)(=O)=O)cc3F)CC2)n1` [Compound 1006, 5-(1-(4-((2-fluoro-4-(methylsulfonyl)phenoxy)methyl)-1,2,5-thiadiazol-3-yl)piperidin-4-yl)-3-isopropyl-1,2,4-oxadiazole], for which the activation at 1 µM was found to be 9%.

Regarding `CC(C)c1noc(C2CCN(c3nsnc3-c3ccc(S(C)(=O)=O)cc3)CC2)n1` [Compound 1007, 3-isopropyl-5-(1-(4-(4-(methylsulfonyl)phenyl)-1,2,5-thiadiazol-3-yl)piperidin-4-yl)-1,2,4-oxadiazole], the activation at 1 µM was -8%.

Regarding `CC(C)OC(=O)N1CCN(c2nsnc2Oc2ccc(-n3cnnn3)cc2)CC1` [Compound 1010, isopropyl 4-(4-(4-(1H-tetrazol-1-yl)phenoxy)-1,2,5-thiadiazol-3-yl)piperazine-1-carboxylate], the activation at 1 µM stood at 2%.

In the case of `CC(C)c1noc(N2CCC(COc3nsnc3OCC3CCN(c4nc(C(C)C)no4)CC3)CC2)n1` [Compound 1011, 3,4-bis((1-(3-isopropyl-1,2,4-oxadiazol-5-yl)piperidin-4-yl)methoxy)-1,2,5-thiadiazole], the activation at 1 µM stood at 2%.

Regarding `CC(C)c1noc(C2CCN(c3nsnc3C(=O)Nc3ccc(S(C)(=O)=O)cc3F)CC2)n1` [Compound 1012, N-(2-fluoro-4-(methylsulfonyl)phenyl)-4-(4-(3-isopropyl-1,2,4-oxadiazol-5-yl)piperidin-1-yl)-1,2,5-thiadiazole-3-carboxamide], the activation at 1 µM was found to be 22%.

The assay is the same for the next values; noted with them: cAMP, class symbols, legend not given.
Take `CC(C)c1noc(N2CCC(C(C)Oc3nn4cc(-c5ccncc5F)nc4s3)CC2)n1` (stereo in doubt) [Compound 1064, (S)-5-(4-(1-((6-(3-fluoropyridin-4-yl)imidazo[2,1-b][1,3,4]thiadiazol-2-yl)oxy)ethyl)piperidin-1-yl)-3-isopropyl-1,2,4-oxadiazole]: the EC50 result is recorded as “A++”.

On to `CCc1cnc(N2CCC(C(C)Oc3nn4cc(-c5ccc(S(C)(=O)=O)nc5F)nc4s3)CC2)nc1` (stereo in doubt) [Compound 1102, 2-((S)-1-(1-(5-ethylpyrimidin-2-yl)piperidin-4-yl)ethoxy)-6-(2-fluoro-6-(methylsulfonyl)pyridin-3-yl)imidazo[2,1-b][1,3,4]thiadiazole], for which the EC50 entry is recorded as “A+”.
